Measurements taken from patent US20230124467A1, “COMPOUNDS AND METHODS FOR TREATING DISEASES AND/OR CONDITIONS CAUSED BY CORONAVIRUS” (priority 2020, published 2023).
Where a name gives a salt, the structure may show the parent alone. Read-outs that look alike come from different tables or passages of the source.

Assays:
Assay type in all cases: cell-based
SARS-CoV-2 [1] = experiment: In vitro antiviral assay, development of cytopathic effects (CPE), Example 1; settings: for minimal effective concentration: ten-fold dilutions from 25 µM, read-out: Initial titre (Minimum concentration of drug inhibiting development of CPE)
VeroE6 cells = experiment: Evaluation of toxicity without virus (CPE and MTT assay), Example 1; settings: for Minimum Cytotoxicity: absence of virus, 72 h
Procedure: Serially diluted compounds (⅒ dilution) were added in each well in the absence of virus and incubated for 72 hours, and at end point the CPE was recorded as above. In parallel, a duplicate plate was set up for an MTT assay (Abcam Ab 211091) carried out following the manufacturer’s recommendations. Briefly, the culture medium was discarded and 50 µl of fresh medium and MTT reagent was added to each well, including a background (no cell) control. The plates were returned to the 37° C. incubator for 3 hours before the MTT/media solution was discarded and 150 µl of MTT solvent was added to each well. The plates were incubated for a further 15 minutes in foil on a hula mixer and the absorbance recorded at 590 nm. The percentage of cytotoxicity was calculated as follows: (DMSO control - sample)/DMSO control, after replicate values were averaged and corrected for the background control (no cell control).

SARS-CoV-2 [2] = experiment: microbe, parasite or virus in culture
[3] = Severe acute respiratory syndrome coronavirus 2, Vero C1008, 20 PFU/well SARS-CoV-2, VeroE6 cells, 72 h
[4] = Severe acute respiratory syndrome coronavirus 2, Vero C1008, 72 h, 20 PFU/well SARS-CoV-2, VeroE6 cells, 72 h, narrower dilution steps in quadruplicate, read-out: Repeat TCID50 (TCID50 measurement for drugs showing greatest initial efficacy on titration)
[5] = Severe acute respiratory syndrome coronavirus 2, Vero C1008, Table 3A, predetermined IC50 of individual drug, Vero-E6, 20 pfu/well, read-out: IC50 (drug used alone)
[6] = Severe acute respiratory syndrome coronavirus 2, Vero C1008, Vero-E6, 20 pfu/well, 72 h, read-out: IC50 measured when each drug used individually
[7] = Severe acute respiratory syndrome coronavirus 2, Vero C1008, 72 h, read-out: IC50 measured when each drug used individually
[8] = Severe acute respiratory syndrome coronavirus 2, Vero C1008, read-out: IC50 (drug used alone)

SMILES	minimal effective concentration (SARS-CoV-2 [1]; [3])	Minimum Cytotoxicity (VeroE6 cells)	also measured
COC(=O)N[C@H](C(=O)N[C@@H](Cc1ccccc1)[C@@H](O)CN(Cc1ccc(-c2ccccn2)cc1)NC(=O)[C@@H](NC(=O)OC)C(C)(C)C)C(C)(C)C [Atazanavir]	> 25 µM	>25 µM	
C[C@H]1[C@H](NC(=O)/C(=N\OC(C)(C)C(=O)O)c2csc(N)n2)C(=O)N1S(=O)(=O)O [Aztreonam]	> 25 µM	>25 µM	
CC(C)c1nc(CN(C)C(=O)N[C@@H](CCN2CCOCC2)C(=O)N[C@H](CC[C@H](Cc2ccccc2)NC(=O)OCc2cncs2)Cc2ccccc2)cs1 [Cobicistat]	> 25 µM	>25 µM	
Nc1nc(F)nc2c1ncn2[C@@H]1O[C@H](COP(=O)(O)O)[C@@H](O)[C@@H]1O [Fludarabine phosphate]		25 µM	cytotoxicity in the MTT assay (VeroE6 cells; at 2.5 µM): none; cytotoxicity in the MTT assay (VeroE6 cells; at 25 µM): showed cytotoxicity
Nc1nc(=O)c2c([nH]1)NCC(CNc1ccc(C(=O)N[C@@H](CCC(=O)[O-])C(=O)[O-])cc1)N2C=O.[Ca+2] (some centres unmarked) [Folinic acid calcium salt hydrate]		>25 µM	minimal effective concentration (SARS-CoV-2 [1]; 20 PFU/well SARS-CoV-2, VeroE6 cells, 72 h): >25 µM
CCN(CCO)CCCC(C)Nc1ccnc2cc(Cl)ccc12 (centres unmarked) [Hydroxychloroquine]	25 µM	25 µM	IC50 (SARS-CoV-2 [1]; 20 PFU/well SARS-CoV-2, VeroE6 cells, 72 h, narrower dilution steps in quadruplicate, read-out: Repeat TCID50 (TCID50 measurement for drugs showing greatest initial efficacy on titration)): 2.9 µM; IC50 (SARS-CoV-2 [1]; [4]): 2 µM; cytotoxicity in the MTT assay (VeroE6 cells; at 2.5 µM): none; cytotoxicity in the MTT assay (VeroE6 cells; at 25 µM): showed cytotoxicity; IC50 (SARS-CoV-2 [2]; [5]): 1.58 µM; IC50 (SARS-CoV-2 [2]; [6]): 1.58 µM
CC(C)(C)NC(=O)[C@@H]1CN(Cc2cccnc2)CCN1C[C@@H](O)C[C@@H](Cc1ccccc1)C(=O)N[C@H]1c2ccccc2C[C@H]1O [Indinavir sulfate]		>25 µM	
CS(=O)(=O)c1cccc(C[C@H](NC(=O)c2c(Cl)cc3c(c2Cl)CCN(C(=O)c2ccc4ccoc4c2)C3)C(=O)O)c1 [Lifitegrast]	> 25 µM	>25 µM	
CCCNS(=O)(=O)Nc1ncnc(OCCOc2ncc(Br)cn2)c1-c1ccc(Br)cc1 [Macitentan]	> 25 µM	>25 µM	
Cc1c(O)cccc1C(=O)N[C@@H](CSc1ccccc1)[C@H](O)CN1C[C@H]2CCCC[C@H]2C[C@H]1C(=O)NC(C)(C)C [Nelfinavir mesylate]		25 µM	IC50 (SARS-CoV-2 [1]; Severe acute respiratory syndrome coronavirus 2, Vero C1008, 72 h, read-out: Repeat TCID50 (TCID50 measurement for drugs showing greatest initial efficacy on titration), 20 PFU/well SARS-CoV-2, VeroE6 cells, 72 h, narrower dilution steps in quadruplicate): 2.9 µM; IC50 (SARS-CoV-2 [1]; read-out: Repeat TCID50 (TCID50 measurement for drugs showing greatest initial efficacy on titration), 20 PFU/well SARS-CoV-2, VeroE6 cells, 72 h, narrower dilution steps in quadruplicate): 2 µM; cytotoxicity in the MTT assay (VeroE6 cells; at 2.5 µM): none; cytotoxicity in the MTT assay (VeroE6 cells; at 25 µM): showed cytotoxicity; IC50 (SARS-CoV-2 [2]; [7]): 0.39 µM; IC50 (SARS-CoV-2 [2]; [8]): 0.39 µM
Cc1onc(-c2ccccc2)c1C(=O)N1CCN(c2ccc([N+](=O)[O-])cc2Cl)CC1 [Nucleozin]	> 25 µM	>25 µM	
CCC(CC)COC(=O)[C@H](C)N[P@](=O)(OC[C@H]1O[C@@](C#N)(c2ccc3c(N)ncnn23)[C@H](O)[C@@H]1O)Oc1ccccc1 [Remdesivir]			IC50 (SARS-CoV-2 [2]; [7]): 1.56 µM; IC50 (SARS-CoV-2 [2]; [8]): 1.56 µM
Cc1cc(/C=C/C#N)cc(C)c1Nc1ccnc(Nc2ccc(C#N)cc2)n1 [Rilpivirine hydrochloride]	> 25 µM	>25 µM	
Cn1nnc(-c2ccc(-c3ccc(N4C[C@H](COP(=O)(O)O)OC4=O)cc3F)cn2)n1 [Tedizolid phosphate]	> 25 µM	>25 µM	
CCCc1nc(C)c2c(=O)[nH]c(-c3cc(S(=O)(=O)N4CCN(CC)CC4)ccc3OCC)nn12 [Vardenafil hydrochloride trihydrate, 2-[2-ethoxy-5-(4-ethylpiperazin-1-yl)sulfonylphenyl]-5-methyl-7-propyl-3H-imidazo[5,1-f][1,2,4]triazin-4-one]	25 µM	>25 µM	IC50 (SARS-CoV-2 [1]; [4]): > 25 µM; IC50 (SARS-CoV-2 [2]; [5]): 6.25 µM; IC50 (SARS-CoV-2 [2]; [6]): 6.25 µM
